“Also recorded” adds a separate entry of the source.
What was measured:
[1] = Release of rhodamine B from PLGA microspheres during incubation in PBS; assay type: physicochemical; conditions: 37° C.
Procedure: (§1) The rhodamine B, in its free base form, was dissolved in PLGA/ethyl acetate solutions at theoretical loadings of 1, 3 and 5%(mass drug/mass polymer). Microspheres of uniform 35, 50 and 65 μm diameters were fabricated, hardened and collected using the procedures described in the above examples. The presence of rhodamine had no observable effect on particle uniformity. Encapsulation of rhodamine (˜70% efficiency) was confirmed by fluorescence microscopy (FIG. 6, right). The rhodamine B is released from the spheres over the course of 7-10 days of incubation in PBS and 37° C.

[2] = Encapsulation of rhodamine B in PLGA microspheres, confirmed by fluorescence microscopy; assay type: physicochemical; conditions: PLGA microspheres from PLGA/ethyl acetate solution, theoretical loadings 1, 3 and 5%
Procedure: as §1

Structure (SMILES): CCN(CC)c1ccc2c(-c3ccccc3C(=O)O)c3ccc(=[N+](CC)CC)cc-3oc2c1 [rhodamine B]
- time over which rhodamine B is released from the spheres ([1]; PLGA microspheres of uniform 35, 50 and 65 μm diameters, theoretical loadings 1, 3 and 5% (mass drug/mass polymer), incubation in PBS): 7 to 10 days
- release rate ([1]; dependence on sphere size and drug loading, PLGA microspheres in PBS): faster when spheres were smaller (not shown) or contained more drug; also recorded: faster when spheres contained more drug
- encapsulation efficiency [2]: ~70%

Source: patent US7368130B2, “Microparticles” (The Board of Trustees of the University of Illinois, priority 2000, dated 2008)
